The NIST ThermoML archive (doi:10.1016/j.tca.2006.04.022)
± gives the expanded uncertainty stated by the source.

Assay: molar heat capacity at constant pressure
Conditions: 101.33 kPa, Vacuum adiabatic calorimetry

CCOS(=O)(=O)[O-].CCn1cc[n+](C)c1 [1-ethyl-3-methylimidazolium ethyl sulfate]
Conditions	molar heat capacity at constant pressure [J/K/mol]
79.23 K, Glass	127.8 ± 8.9
79.7 K, Glass	128.6 ± 9
80.51 K, Glass	129.4 ± 9.1
81.67 K, Glass	130.9 ± 9.2
82.84 K, Glass	131.5 ± 9.2
83.99 K, Glass	133.2 ± 9.3
85.31 K, Glass	135.2 ± 9.5
86.78 K, Glass	136.3 ± 9.5
88.25 K, Glass	137.9 ± 9.7
89.7 K, Glass	138.8 ± 9.7
91.13 K, Glass	141.2 ± 9.9
92.56 K, Glass	142.2 ± 10
93.97 K, Glass	143.4 ± 10
95.39 K, Glass	145.2 ± 10
96.79 K, Glass	146.4 ± 10
98.17 K, Glass	147.5 ± 10
99.54 K, Glass	149.6 ± 10
100.91 K, Glass	151 ± 11
102.27 K, Glass	151.6 ± 11
103.61 K, Glass	152.9 ± 11
104.96 K, Glass	154.3 ± 11
106.29 K, Glass	155.3 ± 11
107.62 K, Glass	155.8 ± 11
108.95 K, Glass	157.3 ± 11
110.26 K, Glass	158.3 ± 11
111.57 K, Glass	159.1 ± 11
112.87 K, Glass	160.6 ± 11
114.17 K, Glass	162.4 ± 11
115.46 K, Glass	163.1 ± 11
116.74 K, Glass	163.6 ± 12
118.02 K, Glass	165.2 ± 12
119.29 K, Glass	166.8 ± 12
120.55 K, Glass	167.9 ± 12
121.82 K, Glass	168.9 ± 12
123.06 K, Glass	170.1 ± 12
124.32 K, Glass	170.7 ± 12
125.55 K, Glass	172.1 ± 12
126.8 K, Glass	173.9 ± 12
128.22 K, Glass	174.7 ± 12
129.84 K, Glass	176.7 ± 12
131.45 K, Glass	178.2 ± 12
133.04 K, Glass	178.9 ± 12
134.63 K, Glass	180 ± 13
136.21 K, Glass	181.3 ± 13
137.77 K, Glass	183.2 ± 13
139.34 K, Glass	184.6 ± 13
140.89 K, Glass	185.1 ± 13
142.73 K, Glass	187.4 ± 13
144.86 K, Glass	189.6 ± 13
146.97 K, Glass	191.6 ± 13
149.07 K, Glass	194.6 ± 14
151.16 K, Glass	196.7 ± 14
153.21 K, Glass	198.7 ± 14
155.27 K, Glass	200.9 ± 14
157.3 K, Glass	202.8 ± 14
159.33 K, Glass	203.6 ± 14
161.34 K, Glass	205.9 ± 14
163.34 K, Glass	208.6 ± 15
165.33 K, Glass	210.2 ± 15
167.3 K, Glass	212.6 ± 15
169.27 K, Glass	214.9 ± 15
171.23 K, Glass	216.9 ± 15
173.18 K, Glass	218.1 ± 15
175.11 K, Glass	220.4 ± 15
177.05 K, Glass	223.2 ± 16
178.98 K, Glass	226 ± 16
180.91 K, Glass	229.3 ± 16
182.83 K, Glass	231.6 ± 16
184.74 K, Glass	234.3 ± 16
186.65 K, Glass	238 ± 17
188.56 K, Glass	243.9 ± 17
190.42 K, Glass	251.8 ± 18
192.11 K, Glass	273.4 ± 19
193.57 K, Glass	313.7 ± 22
194.94 K, Glass	340.7 ± 24
196.36 K, Liquid	346.8 ± 24
197.81 K, Liquid	347.7 ± 24
199.27 K, Liquid	348.4 ± 24
200.76 K, Liquid	349.4 ± 24
202.25 K, Liquid	349.9 ± 24
203.79 K, Liquid	350.5 ± 24
205.33 K, Liquid	350.9 ± 25
206.9 K, Liquid	351.5 ± 25
208.47 K, Liquid	351.9 ± 25
210.06 K, Liquid	352.4 ± 25
211.66 K, Liquid	352.8 ± 25
213.18 K, Liquid	353.2 ± 25
214.52 K, Liquid	353.7 ± 25
215.86 K, Liquid	354.1 ± 25
217.18 K, Liquid	354.5 ± 25
218.5 K, Liquid	354.9 ± 25
219.81 K, Liquid	355.4 ± 25
221.12 K, Liquid	355.7 ± 25
222.41 K, Liquid	356.1 ± 25
223.71 K, Liquid	356.5 ± 25
225 K, Liquid	356.8 ± 25
226.27 K, Liquid	357.1 ± 25
227.54 K, Liquid	357.5 ± 25
228.79 K, Liquid	357.8 ± 25
230.03 K, Liquid	358.1 ± 25
231.26 K, Liquid	358.4 ± 25
232.46 K, Liquid	359 ± 25
233.66 K, Liquid	359.3 ± 25
234.84 K, Liquid	359.6 ± 25
236.02 K, Liquid	359.8 ± 25
237.19 K, Liquid	360.2 ± 25
238.37 K, Liquid	360.5 ± 25
239.54 K, Liquid	361 ± 25
240.7 K, Liquid	361.3 ± 25
241.86 K, Liquid	361.5 ± 25
243.01 K, Liquid	361.9 ± 25
244.15 K, Liquid	362.2 ± 25
245.29 K, Liquid	362.5 ± 25
246.43 K, Liquid	363.1 ± 25
247.58 K, Liquid	363.5 ± 25
248.73 K, Liquid	363.9 ± 26
249.88 K, Liquid	364.2 ± 26
251.02 K, Liquid	364.5 ± 26
252.17 K, Liquid	364.8 ± 26
253.31 K, Liquid	365.5 ± 26
254.45 K, Liquid	365.8 ± 26
255.6 K, Liquid	366.1 ± 26
256.73 K, Liquid	366.3 ± 26
257.87 K, Liquid	366.8 ± 26
259 K, Liquid	367.1 ± 26
260.13 K, Liquid	367.4 ± 26
261.27 K, Liquid	367.6 ± 26
262.4 K, Liquid	367.8 ± 26
263.53 K, Liquid	368 ± 26
264.66 K, Liquid	368.3 ± 26
265.8 K, Liquid	368.7 ± 26
266.93 K, Liquid	369.1 ± 26
268.06 K, Liquid	369.4 ± 26
269.19 K, Liquid	369.5 ± 26
270.33 K, Liquid	369.9 ± 26
271.45 K, Liquid	370.3 ± 26
272.58 K, Liquid	370.8 ± 26
273.71 K, Liquid	371 ± 26
274.83 K, Liquid	371.2 ± 26
275.94 K, Liquid	371.5 ± 26
277.06 K, Liquid	371.8 ± 26
278.18 K, Liquid	372 ± 26
279.28 K, Liquid	372.4 ± 26
280.39 K, Liquid	373 ± 26
281.5 K, Liquid	373.1 ± 26
282.62 K, Liquid	373.5 ± 26
283.72 K, Liquid	373.8 ± 26
284.83 K, Liquid	374.2 ± 26
285.95 K, Liquid	374.5 ± 26
287.05 K, Liquid	374.7 ± 26
288.15 K, Liquid	375 ± 26
289.26 K, Liquid	375.4 ± 26
290.37 K, Liquid	375.6 ± 26
291.47 K, Liquid	376 ± 26
292.58 K, Liquid	376.1 ± 26
293.69 K, Liquid	376.5 ± 26
294.79 K, Liquid	376.8 ± 26
295.9 K, Liquid	377 ± 26
297 K, Liquid	377.4 ± 26
298.11 K, Liquid	378 ± 26
299.22 K, Liquid	378.2 ± 26
300.32 K, Liquid	378.6 ± 26
301.43 K, Liquid	378.9 ± 26
302.54 K, Liquid	379.1 ± 26
303.64 K, Liquid	379.3 ± 27
304.74 K, Liquid	379.6 ± 27
305.86 K, Liquid	379.9 ± 27
306.96 K, Liquid	380.1 ± 27
308.07 K, Liquid	380.3 ± 27
309.18 K, Liquid	380.4 ± 27
310.29 K, Liquid	380.8 ± 27
311.4 K, Liquid	380.9 ± 27
312.52 K, Liquid	381.2 ± 27
313.63 K, Liquid	381.6 ± 27
314.75 K, Liquid	381.8 ± 27
315.85 K, Liquid	382 ± 27
316.97 K, Liquid	382.3 ± 27
318.08 K, Liquid	382.7 ± 27
319.19 K, Liquid	383 ± 27
320.31 K, Liquid	383.1 ± 27
321.42 K, Liquid	383.4 ± 27
322.53 K, Liquid	383.6 ± 27
323.66 K, Liquid	383.9 ± 27
324.75 K, Liquid	383.9 ± 27
325.84 K, Liquid	384.4 ± 27
326.92 K, Liquid	384.6 ± 27
327.99 K, Liquid	384.8 ± 27
329.08 K, Liquid	384.9 ± 27
330.17 K, Liquid	385.1 ± 27
331.26 K, Liquid	385.6 ± 27
332.35 K, Liquid	385.9 ± 27
333.43 K, Liquid	386.1 ± 27
334.52 K, Liquid	386.5 ± 27
335.6 K, Liquid	386.6 ± 27
336.68 K, Liquid	386.9 ± 27
337.77 K, Liquid	387.3 ± 27
338.86 K, Liquid	387.4 ± 27
339.94 K, Liquid	387.8 ± 27
341.04 K, Liquid	388.1 ± 27
342.13 K, Liquid	388.3 ± 27
343.22 K, Liquid	388.6 ± 27
344.31 K, Liquid	388.9 ± 27
345.4 K, Liquid	389.2 ± 27
346.49 K, Liquid	389.5 ± 27
347.58 K, Liquid	389.7 ± 27
348.65 K, Liquid	390 ± 27
349.73 K, Liquid	390.2 ± 27
350.82 K, Liquid	390.5 ± 27
351.91 K, Liquid	390.8 ± 27
353.01 K, Liquid	391.3 ± 27
354.11 K, Liquid	391.6 ± 27
355.22 K, Liquid	392 ± 27
356.31 K, Liquid	392.3 ± 28
357.42 K, Liquid	392.5 ± 28
358.53 K, Liquid	392.7 ± 28
359.63 K, Liquid	392.8 ± 28
360.75 K, Liquid	392.9 ± 28
361.87 K, Liquid	393.1 ± 28
363 K, Liquid	393.4 ± 28
364.13 K, Liquid	393.5 ± 28
365.29 K, Liquid	393.6 ± 28
366.38 K, Liquid	393.9 ± 28
367.47 K, Liquid	394.1 ± 28
368.52 K, Liquid	394.5 ± 28
369.63 K, Liquid	394.7 ± 28
370.76 K, Liquid	394.9 ± 28
371.78 K, Liquid	395.1 ± 28
372.82 K, Liquid	395.3 ± 28
373.9 K, Liquid	395.6 ± 28
374.98 K, Liquid	395.8 ± 28
376.02 K, Liquid	396.2 ± 28
377.08 K, Liquid	396.5 ± 28
378.13 K, Liquid	396.8 ± 28
379.52 K, Liquid	397.1 ± 28
380.42 K, Liquid	397.3 ± 28
381.38 K, Liquid	397.5 ± 28
382.35 K, Liquid	397.8 ± 28
383.43 K, Liquid	398 ± 28
384.34 K, Liquid	398.2 ± 28
385.25 K, Liquid	398.5 ± 28
386.14 K, Liquid	398.8 ± 28
387.09 K, Liquid	399.1 ± 28
388.01 K, Liquid	399.5 ± 28
388.98 K, Liquid	399.7 ± 28
389.95 K, Liquid	399.9 ± 28
